Test results as given in patent US8487103B2 (Roche Palo Alto LLC, priority 2009, dated 2013).
Structures can show the parent of a compound that is named as a salt.

Experiments:
[1] = molecular target: T1, HCV polymerase (NS5B570n-Con1) (Hepatitis C virus genotype 1b, UniProt Q9WMX2); experiment: HCV NS5B RNA Polymerase Activity; format: biochemical, HCV Con1 strain
T1 construct: contains a 21 amino acid deletion at the C-terminus relative to the full-length HCV polymerase; 6-histidine (N); made in house; host or cells: E. coli BL21(DE) pLysS, plasmid pET 17b
Experimental: The enzymatic activity of HCV polymerase (NS5B570n-Con1) was measured as the incorporation of radiolabeled nucleotide monophosphates into acid insoluble RNA products. Unincorporated radiolabeled substrate was removed by filtration and scintillant was added to the washed and dried filter plate containing radiolabeled RNA product. The amount of RNA product generated by NS5B570-Con1 at the end of the reaction was directly proportional to the amount of light emitted by the scintillant.
The N-terminal 6-histidine tagged HCV polymerase, derived from HCV Con1 strain, genotype 1b (NS5B570n-Con1) contains a 21 amino acid deletion at the C-terminus relative to the full-length HCV polymerase and was purified from E. coli strain BL21(DE) pLysS. The construct, containing the coding sequence of HCV NS5B Con1 (GenBank accession number AJ242654) was inserted into the plasmid construct pET 17b, downstream of a T7 promoter expression cassette and transformed into E. coli. A single colony was grown overnight as a starter culture and later used inoculate 10 L of LB media supplemented with 100 μg/mL ampicillin at 37° C. Protein expression was induced by the addition of 0.25 mM isopropyl-β-D-thiogalactopyranoside (IPTG) when optical density at […] of the culture was between 0.6 and 0.8 and cells were harvested after 16 to 18 h at 30° C. NS5B570n-Con1 was purified to homogeneity using a three-step protocol including subsequent column chromatography on Ni-NTA, SP-Sepharose HP and Superdex 75 resins.
Each 50 μL enzymatic reaction contained 20 nM RNA template derived from the complementary sequence of the Internal Ribosome Entry Site (cIRES), 20 nM NS5B570n-Con1 enzyme, 0.5 μCi of tritiated UTP (Perkin Elmer catalog no. TRK-412; specific activity: 30 to 60 Ci/mmol; stock solution concentration from 7.5×10^−5 M to 20.6×10^−6 M), 1 μM each ATP, CTP, and GTP, 40 mM Tris-HCl pH 8.0, 40 mM NaCl, 4 mM DTT (dithiothreitol), 4 mM MgCl2, and 5 μl of compound serial diluted in DMSO. Reaction mixtures were assembled in 96-well filter plates (cat #MADVN0B, Millipore Co.) and incubated for 2 h at 30° C. Reactions were stopped by addition of 10% final (v/v) trichloroacetic acid and incubated for 40 min at 4° C. Reactions were filtered, washed with 8 reaction volumes of 10% (v/v) trichloroacetic acetic acid, 4 reaction volumes of 70% (v/v) ethanol, air dried, and 25 μl of scintillant (Microscint 20, Perkin-Elmer) was added to each reaction well.
The amount of light emitted from the scintillant was converted to counts per minute (CPM) on a Topcount® plate reader (Perkin-Elmer, Energy Range: Low, Efficiency Mode Normal, Count Time: 1 min, Background Subtract: none, Cross talk reduction: Off).
Data was analyzed in Excel® (Microsoft) and ActivityBase® (Idbs®). The reaction in the absence of enzyme was used to determine the background signal, which was subtracted from the enzymatic reactions. Positive control reactions were performed in the absence of compound, from which the background corrected activity was set as 100% polymerase activity. All data was expressed as a percentage of the positive control. The compound concentration at which the enzyme-catalyzed rate of RNA synthesis was reduced by 50% (IC50) was calculated by fitting equation (i) to the data where“Y”
[formula] corresponds to the relative enzyme activity (in %), “% Min” is the residual relative activity at saturating compound concentration, “% Max” is the relative maximum enzymatic activity, “X” corresponds to the compound concentration, and “S” is the Hill coefficient (or slope).

[2] = test system: HCV replicon cells (2209-23), genotype 1b replicon; experiment: HCV Replicon Assay (Renilla luciferase reporter); format: cell-based, HCV genotype 1b; conditions: Hepatitis C virus, 72 h; cell line 2209-23, luciferase activity after three days

SMILES | melting point [°C] | IC50 [1] [nM] | IC50 [2] [nM]
CC(C)(C)c1cc(-c2ccc[nH]c2=O)c2ncc(N3CCC(NS(C)(=O)=O)CC3)nc2c1 | 275 to 280 |  | 
COc1nc2c(-c3ccc[nH]c3=O)cc(C(C)(C)C)cc2cc1-c1ccc(NS(C)(=O)=O)cc1 [Compound I-1, N-{4-[6-tert-Butyl-2-methoxy-8-(2-oxo-1,2-dihydro-pyridin-3-yl)-quinolin-3-yl]-phenyl}-methanesulfonamide] | 274 to 276 | 8 | 
CC(C)(C)c1cc(-c2cc(F)c[nH]c2=O)c2ncc(-c3ccc(NS(C)(=O)=O)cc3)nc2c1 [Compound I-2, N-{4-[7-tert-Butyl-5-(5-fluoro-2-oxo-1,2-dihydro-pyridin-3-yl)-quinoxalin-2-yl]-phenyl}-methanesulfonamide] | > 300 | 31 | 
CC(C)(C)c1cc(-c2cc(F)c[nH]c2=O)c2ncc(N3CC[C@H](CNS(C)(=O)=O)C3)nc2c1 [Compound I-4, N-{(S)-1-[7-tert-Butyl-5-(5-fluoro-2-oxo-1,2-dihydro-pyridin-3-yl)-quinoxalin-2-yl]-pyrrolidin-3-ylmethyl}-methanesulfonamide] | 170 to 175 | 191 | 
CC(C)(C)c1cc(-c2cc(F)c[nH]c2=O)c2ncc(N3CCC(NS(C)(=O)=O)CC3)nc2c1 [Compound I-5] | 224 to 226 | 817 | 
CC(C)(C)c1cc(-c2ccc[nH]c2=O)c2ncc(-c3ccc(NS(C)(=O)=O)cc3)nc2c1 [Compound I-6, N-{4-[7-tert-Butyl-5-(2-oxo-1,2-dihydro-pyridin-3-yl)-quinoxalin-2-yl]-phenyl}-methanesulfonamide] | 260 to 263 | 1 | 
CC(C)(C)c1cc(-c2ccc[nH]c2=O)c2ncc(-c3ccc(NS(C)(=O)=O)cc3Cl)nc2c1 [Compound I-7] | 275 to 278 | 3 | 
CC(C)(C)c1cc(-c2cc(F)c[nH]c2=O)c2ncc(-c3ccc(NS(C)(=O)=O)cc3)cc2c1 [Compound I-12] | 208 to 210 |  | 
CC(C)(C)c1cc(-c2cc(F)c[nH]c2=O)c2ncc(N3CCC(NS(C)(=O)=O)CC3)cc2c1 [Compound I-13, N-{1-[6-tert-Butyl-8-(5-fluoro-2-oxo-1,2-dihydro-pyridin-3-yl)-quinolin-3-yl]-piperidin-4-yl}-methanesulfonamide] | 186 to 188 | 64 | 
COc1c(C(C)(C)C)cc(-c2ccc[nH]c2=O)c2ncc(N3CC(CNS(C)(=O)=O)C3)cc12 [Compound I-19, N-{1-[6-tert-Butyl-5-methoxy-8-(2-oxo-1,2-dihydro-pyridin-3-yl)-quinolin-3-yl]-azetidin-3-ylmethyl}-methanesulfonamide] | 177 to 180 | 3 | 
COc1c(C(C)(C)C)cc(-n2ccc(=O)[nH]c2=O)c2ncc(-c3ccc(NS(C)(=O)=O)cc3)cc12 [Compound I-21, N-{4-[6-tert-Butyl-8-(2,4-dioxo-3,4-dihydro-2H-pyrimidin-1-yl)-5-methoxy-quinolin-3-yl]-phenyl}-methanesulfonamide] | 277 to 281 | 2.2 | 0.3
COc1c(C(C)(C)C)cc(-c2ccc(CO)[nH]c2=O)c2ncc(-c3ccc(NS(C)(=O)=O)cc3)cc12 [Compound I-41, N-{4-[6-tert-Butyl-8-(6-hydroxymethyl-2-oxo-1,2-dihydro-pyridin-3-yl)-5-methoxy-quinolin-3-yl]-phenyl}-methanesulfonamide] | 293 to 295 | 0.2 | 
COc1c(C(C)(C)C)cc(-c2ccc(C)[nH]c2=O)c2ncc(OCCCNS(C)(=O)=O)cc12 [Compound I-45, N-{3-[6-tert-Butyl-5-methoxy-8-(6-methyl-2-oxo-1,2-dihydro-pyridin-3-yl)-quinolin-3-yloxy]-propyl}-methanesulfonamide] |  | 11.8 | 
COc1c(C(C)(C)C)cc(-c2ccc(C)[nH]c2=O)c2ncc(N3CC[C@H](CNS(C)(=O)=O)C3)cc12 [Compound I-46] |  | 0.9 | 
COc1[nH]c(=O)c(-c2cc(C(C)(C)C)c(OC)c3cc(-c4ccc(NS(C)(=O)=O)cc4)cnc23)cc1F [Compound I-47, N-{4-[6-tert-Butyl-8-(5-fluoro-6-methoxy-2-oxo-1,2-dihydro-pyridin-3-yl)-5-methoxy-quinolin-3-yl]-phenyl}-methanesulfonamide] |  | 12.8 | 
Cc1ccc(-c2nc(C(C)(C)C)cc3cc(-c4ccc(NS(C)(=O)=O)cc4)ccc23)c(=O)[nH]1 [Compound I-48, N-{4-[3-tert-Butyl-1-(6-methyl-2-oxo-1,2-dihydro-pyridin-3-yl)-isoquinolin-6-yl]-phenyl}-methanesulfonamide] |  |  | 27.4
COc1c(C(F)(F)F)cc(-c2ccc(C)[nH]c2=O)c2ncc(-c3ccc(NS(C)(=O)=O)cc3)cc12 [Compound I-49, N-{4-[5-Methoxy-8-(6-methyl-2-oxo-1,2-dihydro-pyridin-3-yl)-6-trifluoromethyl-quinolin-3-yl]-phenyl}-methanesulfonamidehydrobromide] |  | 0.7 | 
COc1ccc(-c2cc(C(F)(F)F)c(OC)c3cc(-c4ccc(NS(C)(=O)=O)cc4)cnc23)c(=O)[nH]1 [Compound I-50] |  | 0.6 | 
COc1c(C(F)(F)F)cc(-n2ccc(=O)[nH]c2=O)c2ncc(-c3ccc(NS(C)(=O)=O)cc3)cc12 [Compound I-51, N-{4-[8-(2,4-Dioxo-3,4-dihydro-2H-pyrimidin-1-yl)-5-methoxy-6-trifluoromethyl-quinolin-3-yl]-phenyl}-methanesulfonamide] |  | 3.8 | 
COc1c(C(C)(C)C)cc(-n2ccc(=O)[nH]c2=O)c2ncc(N3CC[C@H](CNS(C)(=O)=O)C3)cc12 [Compound I-52, N-{(S)-1-[6-tert-Butyl-8-(2,4-dioxo-3,4-dihydro-2H-pyrimidin-1-yl)-5-methoxy-quinolin-3-yl]-pyrrolidin-3-ylmethyl}-methanesulfonamide] |  | 3.5 | 
COc1c(CC(F)(F)F)cc(-c2ccc(C)[nH]c2=O)c2ncc(-c3ccc(NS(C)(=O)=O)cc3)cc12 [Compound I-53, N-{4-[5-Methoxy-8-(6-methyl-2-oxo-1,2-dihydro-pyridin-3-yl)-6-(2,2,2-trifluoro-ethyl)-quinolin-3-yl]-phenyl}-methanesulfonamide hydrobomide salt] |  | 9.6 | 
COc1ccc(-c2cc(CC(F)(F)F)c(OC)c3cc(-c4ccc(NS(C)(=O)=O)cc4)cnc23)c(=O)[nH]1 [Compound I-54, N-{4-[5-Methoxy-8-(6-methoxy-2-oxo-1,2-dihydro-pyridin-3-yl)-6-(2,2,2-trifluoro-ethyl)-quinolin-3-yl]-phenyl}-methanesulfonamide] |  | 2.2 | 
COc1c(CC(F)(F)F)cc(-n2ccc(=O)[nH]c2=O)c2ncc(-c3ccc(NS(C)(=O)=O)cc3)cc12 [Compound I-56, N-{4-[8-(2,4-Dioxo-3,4-dihydro-2H-pyrimidin-1-yl)-5-methoxy-6-(2,2,2-trifluoro-ethyl)-quinolin-3-yl]-phenyl}-methanesulfonamide] |  | 38.5 | 
COc1ccc(-c2cc(C(C)(C)C)cc3cc(-c4ccc(NS(C)(=O)=O)cc4)cnc23)c(=O)[nH]1 [Compound I-58] |  | 6 | 
COc1ccc(-c2cc(C(C)(C)C)cc3cc(N4CC[C@H](CNS(C)(=O)=O)C4)cnc23)c(=O)[nH]1 [Compound I-60, N-{(S)-1-[6-tert-Butyl-8-(6-methoxy-2-oxo-1,2-dihydro-pyridin-3-yl)-quinolin-3-yl]-pyrrolidin-3-ylmethyl}-methanesulfonamide] |  |  | 81.8
